Patent publication US11072632B2, “Inhibitors of 17β-HSD1, 17β-HSD3 and 17β-HSD10” (UNIVERSITÉ LAVAL, priority 2011, dated 2021)
Read-outs that look alike come from different tables or passages of the source.

How the values were obtained:
17β-HSD1 = target: T1, 17β-HSD1 (Homo sapiens, UniProt P14061); experiment: Inhibition of 17β-HSD1 in T-47D intact cells (E1 into E2); assay type: cell-based; settings: T47D; for inhibition at 1 µM: read-out: Inhibition (1 μM); for inhibition at 0.01 µM: read-out: Inhibition % (0.01 μM)
T1 construct: endogenous in cells; host or cells: T-47D
T1 sequence (P14061 1-328): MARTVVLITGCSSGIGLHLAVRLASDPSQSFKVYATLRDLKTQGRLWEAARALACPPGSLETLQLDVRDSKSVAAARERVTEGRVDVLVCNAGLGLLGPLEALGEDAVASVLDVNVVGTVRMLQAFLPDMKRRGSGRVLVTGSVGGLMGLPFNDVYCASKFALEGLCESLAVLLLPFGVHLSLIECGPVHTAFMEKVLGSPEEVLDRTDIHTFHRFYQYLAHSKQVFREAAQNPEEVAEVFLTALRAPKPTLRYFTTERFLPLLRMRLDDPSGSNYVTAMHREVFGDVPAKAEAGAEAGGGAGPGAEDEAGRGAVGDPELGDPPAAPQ
Protocol: T-47D cells were seeded in a 24-well plate (3000 cells/well) in medium supplemented with insulin (50 ng/mL) and 5% dextran-coated charcoal treated FBS rather than 10% FBS to remove remaining hormones. […] Each inhibitor was assessed in triplicate. After incubation, the culture medium was removed and labelled steroids (E1 and E2) extracted with 1 mL of diethyl ether. The organic phases were separated and evaporated to dryness using nitrogen. Residues were dissolved in dichloromethane and dropped on silica gel thin layer chromatography plates (EMD Chemicals Inc., Gibbstown, N.J., USA) and eluted with a toluene/acetone (4:1) solvent system. Substrate [^14C]-E1 and metabolite [^14C]-E2 were identified by comparison with reference steroids and quantified using a Storm 860 system (Molecular Dynamics, Sunnyvale, Calif., USA).
T-47D cells were seeded in a 24-well plate (3000 cells/well) in 990 μL of medium supplemented with insulin (50 ng/mL) and 5% dextran-coated charcoal-treated FBS, which was used rather than untreated 10% FBS, to remove the remaining steroid hormones. […] The final concentration of ethanol in the well was adjusted to 0.1%. Additionally, 5 μL of a solution of [^14C]-estrone (American Radiolabeled Chemicals, Inc., St. Louis, Mo., USA) was added to obtain a final concentration of 60 nM. […] After incubation, the culture medium was removed and labeled steroids (E1 and E2) were extracted with 1 mL of diethyl ether. The organic phases were evaporated to dryness with nitrogen. Residues were dissolved in dichloromethane and dropped on silica gel thin layer chromatography plates (EMD Chemicals Inc., Gibbstown, N.J., USA) and eluted with toluene/acetone (4:1) as solvent system. Substrate [^14C]-E1 and metabolite [^14C]-E2 were identified by comparison with reference steroids (E1 and E2) and quantified using the Storm 860 system (Molecular Dynamics, Sunnyvale, Calif., USA).

MCF-7 cells = experiment: Estrogenic activity in MCF-7 cells; as to Estrogenicity (0.1 μM): key: — = no; + = weak; ++ = medium to strong; as to Estrogenicity (1.0 μM): key: — = no; + = weak; ++ = medium to strong; assay type: cell-based, human; settings: 7 days; for Estrogenicity (1.0 μM) / Estrogenicity (0.1 μM): growth of estrogen-starved MCF-7 cells; for estrogenic activity on MCF-7 cells (FIG. 1): concentrations up to 5 μM
Protocol: MCF-7 cells were seeded with medium supplemented with insulin (50 ng/mL) and 5% dextran-coated charcoal treated FBS rather than 10% FBS to remove remaining hormones. Aliquots (100 μL) of the cell suspension were seeded in 96-well plates (3000 cells/well). […] Cells were grown either in the absence or presence of the compounds over a period of 7 days. Quantification of cell growth was determined by using the CellTiter 96®Aqueous Solution Cell Proliferation Assay (Promega, Nepean, ON, Canada) following the manufacturer's instructions. To determine the proliferative (estrogenic) activity, the cells were grown in the absence (control fixed as 100%) or presence of the tested compounds at the indicated concentrations.

17β-HSD3 [1] = target: T2, 17β-HSD3 (Homo sapiens, UniProt P37058); experiment: Inhibition of 17β-HSD3 in intact HEK-293 cells; assay type: cell-based
T2 construct: expressed in transfected cells; host or cells: HEK-293 (homogenate)
T2 sequence (P37058 1-310): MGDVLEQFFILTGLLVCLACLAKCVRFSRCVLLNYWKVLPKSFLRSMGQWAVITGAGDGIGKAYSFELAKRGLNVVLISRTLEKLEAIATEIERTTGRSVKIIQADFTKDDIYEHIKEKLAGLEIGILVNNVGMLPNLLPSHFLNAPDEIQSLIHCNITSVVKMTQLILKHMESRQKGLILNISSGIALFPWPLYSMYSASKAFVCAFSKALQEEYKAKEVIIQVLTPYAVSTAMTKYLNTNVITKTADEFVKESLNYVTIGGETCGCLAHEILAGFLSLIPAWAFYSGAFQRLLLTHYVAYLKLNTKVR

17β-HSD3 [2] = target: T2, 17β-HSD3; experiment: Inhibition of 17β-HSD3 in homogenated HEK-293 cells; assay type: biochemical
17β-HSD10 = target: T3, 17β-HSD10 (Homo sapiens, UniProt Q99714); experiment: Inhibition of 17β-HSD10 in stably transfected HEK-293 whole cells (E2 into E1); assay type: cell-based
T3 construct: expressed in transfected cells
T3 sequence (Q99714 1-261): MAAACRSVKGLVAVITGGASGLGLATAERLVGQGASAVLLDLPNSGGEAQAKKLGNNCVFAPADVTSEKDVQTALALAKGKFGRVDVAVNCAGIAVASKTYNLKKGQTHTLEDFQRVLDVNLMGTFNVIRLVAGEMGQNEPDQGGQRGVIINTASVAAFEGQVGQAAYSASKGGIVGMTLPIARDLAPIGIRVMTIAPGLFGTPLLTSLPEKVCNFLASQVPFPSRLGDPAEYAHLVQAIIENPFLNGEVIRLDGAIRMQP

[3] = Table 2 (17β-HSD1), [14C]-E1 60 nM, T-47D intact cells, 0.1 μM, read-out: Inhibition (0.1 μM)
[4] = Table 2 (17β-HSD1), [14C]-E1 60 nM, T-47D intact cells, 1 μM
[5] = [14C]-E1 (60 nM) into [14C]-E2, T-47D intact cells
[6] = [14C]-E1 (60 nM) into [14C]-E2, T-47D intact cells, 0.1 μM, read-out: Inhibition % (0.1 μM)

Row | SMILES | inhibition at 0.1 µM (17β-HSD1; [3]) [%] | inhibition at 1 µM (17β-HSD1; [4]) [%] | Estrogenicity (1.0 μM) (MCF-7 cells) | inhibition at 0.1 µM (17β-HSD1; read-out: Inhibition (0.1 μM)) [%] | inhibition at 1 µM (17β-HSD1) [%] | further results
1 | C[C@]12CC[C@@H]3c4ccc(C(N)=O)cc4CC[C@H]3[C@@H]1C[C@H](Cc1cccc(C(N)=O)c1)[C@@H]2O [Compound 61, (16β,17β)-16-(3-carbamoylbenzyl)-17-hydroxyestra-1,3,5(10)-triene-3-carboxamide] | 3 | 23 | ++ |  |  | 
2 | C[C@]12CC[C@@H]3c4ccc(C(=O)O)cc4CC[C@H]3[C@@H]1C[C@H](Cc1cccc(C(N)=O)c1)[C@@H]2O [Compound 36, (16β,17β)-16-(3-carbamoylbenzyl)-17-hydroxyestra-1,3,5(10)-triene-3-carboxylic acid] | 5 | 8 | ++ |  |  | 
3 | C[C@]12CC[C@@H]3c4ccc(CCO)cc4CC[C@H]3[C@@H]1CC(Cc1cccc(C(N)=O)c1)[C@@H]2O (stereo partly drawn) [IV, 3-{[(17β)-17-hydroxy-3-(2-hydroxyethyl)estra-1(10),2,4-trien-16-yl]methyl}benzamide] | 19 | 57 | ++ |  |  | inhibition at 0.01 µM (17β-HSD1; [5]): 7%; inhibition at 0.1 µM (17β-HSD1; [6]): 17%; estrogenic activity on MCF-7 cells (FIG. 1) (MCF-7 cells): completely removed any estrogenic activity; Estrogenicity (0.1 μM) (MCF-7 cells): +
4 | C[C@]12CC[C@@H]3c4ccc(CO)cc4CC[C@H]3[C@@H]1C[C@H](Cc1cccc(C(N)=O)c1)[C@@H]2O [II, 3-{[(16β,17β)-17-hydroxy-3-(hydroxymethyl)estra-1,3,5(10)-trien-16-yl]methyl}benzamide] | 56 | 73 | + |  |  | inhibition at 0.01 µM (17β-HSD1; [5]): 14%; inhibition at 0.1 µM (17β-HSD1; [6]): 37%; estrogenic activity on MCF-7 cells (FIG. 1) (MCF-7 cells): significant estrogenic activity
5 | C[C@]12CC[C@@H]3c4ccc(F)cc4CC[C@H]3[C@@H]1C[C@H](Cc1cccc(C(N)=O)c1)[C@@H]2O [Compound 57, 3-{[(16β,17β)-3-fluoro-17-hydroxyestra-1(10),2,4-trien-16-yl]methyl}benzamide] |  |  | + | 48 | 50 | 
6 | CNC(=O)c1ccc2c(c1)CC[C@@H]1[C@@H]2CC[C@]2(C)[C@@H](O)[C@@H](Cc3cccc(C(N)=O)c3)C[C@@H]12 [Compound 41d, (16β,17β)-16-(3-carbamoylbenzyl)-17-hydroxy-N-methylestra-1,3,5(10)-triene-3-carboxamide] |  |  | + | 3 | 5 | 
7 | C[C@]12CC[C@@H]3c4ccc(CN)cc4CC[C@H]3[C@@H]1C[C@H](Cc1cccc(C(N)=O)c1)[C@@H]2O [Compound 39, 3-{[(16β,17β)-3-(aminomethyl)-17-hydroxyestra-1,3,5(10)-trien-16-yl]methyl}benzamide] |  |  | ++ | 35 | 73 | Estrogenicity (0.1 μM) (MCF-7 cells): ++
8 | C[C@]12CC[C@@H]3c4ccc(B(O)O)cc4CC[C@H]3[C@@H]1C[C@H](Cc1cccc(C(N)=O)c1)[C@@H]2O [Compound 46, [(16β,17β)-16-(3-carbamoylbenzyl)-17-hydroxyestra-1(10),2,4-trien-3-yl]boronic acid] | 39 |  | ++ |  |  | Estrogenicity (0.1 μM) (MCF-7 cells): ++
9 | C[C@]12CC[C@@H]3c4ccc(CC(=O)O)cc4CC[C@H]3[C@@H]1C[C@H](Cc1cccc(C(N)=O)c1)[C@@H]2O [Compound 31, [(16β,17β)-16-(3-carbamoylbenzyl)-17-hydroxyestra-1(10),2,4-trien-3-yl]acetic acid] | 12 | 29 | + |  |  | 
10 | CC1CN(C[C@@]2(O)CC[C@@]3(C)[C@@H](CC[C@@H]4[C@@H]3CC[C@]3(C)C(=O)CC[C@@H]43)C2)C(C)CN1Cc1cccc(C(F)(F)F)c1 (stereo partly drawn) [Compound 11a, (3α,5α)-3-({(2ξ,5ξ)-2,5-dimethyl-4-[3-(trifluoromethyl)benzyl]piperazin-1-yl}methyl)-3-hydroxyandrostan-17-one] |  |  |  |  |  | Intact cells (%), tested at 1 μM (17β-HSD3 [1]; Table 3, footnote b, 1 μM): N/A (78)^b %; Homo (%) (0.01 μM) (17β-HSD3 [2]; Table 3, 0.01 μM): 31%; Homo (%) (0.1 μM) (17β-HSD3 [2]; Table 3, 0.1 μM): 89%; Inhibition (%) at 1 μM (17β-HSD10; [14C]-E2 (1 μM) into [14C]-E1, intact HEK-293 cells, 1 μM): 26%
11 | C[C@]12CC[C@@H]3c4ccc(N)cc4CC[C@H]3[C@@H]1C[C@H](Cc1cccc(C(N)=O)c1)[C@@H]2O [Compound 50, 3-{[(16β,17β)-3-amino-17-hydroxyestra-1,3,5(10)-trien-16-yl]methyl}benzamide] |  |  | + | 35 | 43 | 
12 | C[C@]12CC[C@](O)(CN3CCN(Cc4ccccc4)CC3)C[C@@H]1CC[C@@H]1[C@@H]2CC[C@]2(C)C(=O)CC[C@@H]12 [Compound 7j, (3α,5α)-3-[(4-benzylpiperazin-1-yl)methyl]-3-hydroxyandrostan-17-one] |  |  |  |  |  | inhibition at 0.1 µM (17β-HSD3 [1]; HEK293, 1 h, read-out: Intact cells (%) (0.1 μM), Table 2 (17β-HSD3)): 37%; inhibition at 0.1 µM (17β-HSD3 [1]; HEK293, 1 h, read-out: Intact cells (%) (0.1 μM), Table 3): 38%; inhibition at 1 µM (17β-HSD3 [1]; HEK293, 1 h, read-out: Intact cells (%) (1 μM), Table 2 (17β-HSD3), 1 μM): 80%; inhibition at 0.01 µM (17β-HSD3 [2]; Table 2 (17β-HSD3), [14C]-Δ4-dione 50 nM into [14C]-T, 0.01 μM, read-out: Homo (%) (0.01 μM)): 35%; inhibition at 0.01 µM (17β-HSD3 [2]; read-out: Homo (%) (0.01 μM), Table 3, 0.01 μM): 36%; inhibition at 0.1 µM (17β-HSD3 [2]; read-out: Homo (%) (0.1 μM), Table 2 (17β-HSD3), 0.1 μM): 72%; inhibition at 0.1 µM (17β-HSD3 [2]; read-out: Homo (%) (0.1 μM), Table 3, 0.1 μM): 74%; inhibition at 1 µM (17β-HSD3 [2]; read-out: Homo (%) (1 μM), Table 2 (17β-HSD3), 1 μM): 90%; inhibition at 1 µM (17β-HSD10; HEK293, read-out: Inhibition (%) at 1 μM): 57%
